Test results from patent US9572817B2, “Use of androgens for vascular regeneration and endothelial repair” (THE HEART RESEARCH INSTITUTE LTD., priority 2008, dated 2017).
Read-outs that look alike come from different tables or passages of the source.

What was measured:
[1] = system: Human Umbilical Endothelial Cells (HUVEC); assay: EC migration (scratch assay and boyden chamber assay); type: cell-based
Method: (§1) The effect of the non-aromatizable androgen dihydrotestosterone was assessed on three key angiogenic processes: endothelial cell (EC) migration, EC proliferation and EC tubulogenesis. Cells were treated with 0, 4, 40 or 400 nM dihydrotestosterone (DHT, a potent androgen) with and without the androgen-receptor antagonist hydroxyflutamide (HF).
EC migration was assessed via a scratch assay and boyden chamber assay. Human Umbilical Endothelial Cells (HUVEC) monolayers were grown in the presence of varying doses of DHT±Hydroxyflutamide (HF), and either scratched or placed on top of permeable membranes. EC migration across the culture surface or through the membranes was assessed at 24 h and 6 h respectively via light and fluorescence microscopy respectively.

[2] = system: HUVECs; assay: EC proliferation (direct counting of cell numbers and MTS Assay); type: cell-based, Human
Method: as §1
EC proliferation was assessed using two methods: direct counting of cell numbers and the MTS Assay. HUVECs were seeded at a density of 1×10^4 cells/ml (12 well plates for counting, 96 well plates for MTS assay) in endothelial growth media in the presence of varying doses DHT±Hydroxyflutamide (HF). After 48 h, cells were either harvested from 12 well plates and counted or incubated with MTS reagent in the 96 well plates with absorbance measured subsequently at 490 nm measured.

[3] = system: Male C57B16/J mice; details: castrate+DHT male mice, after 7 days; control 0.39±0.03
Source text: (§2) Male C57B16/J mice were either castrated or sham-castrated after reaching sexual maturity (6 weeks). After a period of 10 days, 50% of both castrated and sham-castrated mice received a 1 cm subcutaneous silastic implant containing DHT.

[4] = system: Male C57B16/J mice; details: castrate+DHT
Source text: as §2
Mononuclear cells were harvested from the spleens and bone marrow of all animals and assessed via cell culture and flow cytometry. Cells were and stained with fluorescein isothiocyanate-lectin and/or 1,1(-dioctadecyl-3,3,3(,3(-tetramethylindocarbocyanine (DiI)-labelled, acetylated low-density lipoprotein (Vasa M, et al. Number and migratory activity of circulating endothelial progenitor cells inversely correlate with risk factors for coronary artery disease. Circ Res. 2001; 89:e1-e7).

[5] = system: HUVECs; assay: EC tubulogenesis (co-culture assay of fibroblasts and ECs); type: cell-based, Human; details: for EC tubulogenesis vs. 100% control value: donor cells; for tubule formation vs. 100% control value: male EC, chronic exposure (72 h)
Method: The effect of the non-aromatizable androgen dihydrotestosterone was assessed on three key angiogenic processes: endothelial cell (EC) migration, EC proliferation and EC tubulogenesis.
Co-cultures were grown in the presence of DHT±Hydroxyflutamide (HF). After 72 h, co-cultures were assessed using immunohistochemistry for EC specific markers and image analysis software.

[6] = intramuscular injection; cited from earlier work

**Q.** Which “EC migration vs. 100% control value” ([1]; donor cells, DHT 4 nM) does the source give for `C[C@]12CCC(=O)C[C@@H]1CC[C@@H]1[C@@H]2CC[C@]2(C)[C@@H](O)CC[C@@H]12` [DHT, 5α-dihydrotestosterone] here?
**A.** 90±5%

**Q.** And the “EC migration vs. 100% control value” ([1]; donor cells, DHT 40 nM)?
**A.** 96±5%

**Q.** And the “EC migration vs. 100% control value” ([1]; donor cells, DHT 400 nM)?
**A.** 93±8%

**Q.** And the “EC migration vs. 100% control value” ([1]; male EC, DHT 4 nM, after 24 h)?
**A.** 138±7%

**Q.** And the “EC migration vs. 100% control value” ([1]; male EC, DHT 40 nM, after 24 h)?
**A.** 280±23%

**Q.** What about the “EC migration vs. 100% control value” ([1]; male EC, DHT 400 nM, after 24 h) of the same compound?
**A.** 306±32%

**Q.** What about the “EC proliferation vs. 100% control value” ([2]; donor cells, DHT 4 nM) of the same compound?
**A.** 92±5%

**Q.** What about the “EC proliferation vs. 100% control value” ([2]; donor cells, DHT 40 nM) of the same compound?
**A.** 92±3%

**Q.** And the “EC proliferation vs. 100% control value” ([2]; donor cells, DHT 400 nM)?
**A.** 89±6%

**Q.** And the “EC proliferation vs. 100% control value” ([2]; male EC, DHT 4 nM, after 48 h)?
**A.** 112±8%

**Q.** And the “EC proliferation vs. 100% control value” ([2]; male EC, DHT 40 nM, after 48 h)?
**A.** 118±5%

**Q.** What about the “EC proliferation vs. 100% control value” ([2]; male EC, DHT 400 nM, after 48 h) of the same compound?
**A.** 127±4%

**Q.** What about the “Laser Doppler Perfusion Index (LDPI) ischemic/non-ischemic ratio” value [3] of the same compound?
**A.** 0.6±0.06

**Q.** And the spleen angiogenic cells ([4]; absence of ischaemia, control 15.4±1, castrated 10.3±0.9)?
**A.** 10±0.9 Angiogenic cells/×200 field

**Q.** And the spleen angiogenic cells ([4]; presence of ischaemia, control 22±1.7, castrated 16±0.8)?
**A.** 26±1.3 Angiogenic cells/×200 field

**Q.** And the “bone marrow angiogenic cells” value ([4]; presence of ischaemia, control 60±2.4, castrate 26±1.7)?
**A.** 36±3 Angiogenic cells/×200 field

**Q.** What about the “EC tubulogenesis vs. 100% control value” ([5]; DHT 4 nM) of the same compound?
**A.** 92±3%

**Q.** And the “EC tubulogenesis vs. 100% control value” ([5]; DHT 40 nM)?
**A.** 90±3%

**Q.** What about the “EC tubulogenesis vs. 100% control value” ([5]; DHT 400 nM) of the same compound?
**A.** 92±3%

**Q.** What about the “tubule formation vs. 100% control value” ([5]; DHT 4 nM) of the same compound?
**A.** 115±7%

**Q.** What about the “tubule formation vs. 100% control value” ([5]; DHT 40 nM) of the same compound?
**A.** 137±5%

**Q.** What about the “tubule formation vs. 100% control value” ([5]; DHT 400 nM) of the same compound?
**A.** 157±6%

**Q.** Which “time to peak serum testosterone levels after administration” value [6] does the source give for `CCCCCCC(=O)O[C@H]1CC[C@H]2[C@@H]3CCC4=CC(=O)CC[C@]4(C)[C@H]3CC[C@]12C` [Testosterone enanthate] here?
**A.** 24 h
